Series [1] deals with GI.1c/RHDV FRG 3CLpro (Rabbit hemorrhagic disease virus, UniProt P27410). Kind of series: FRET assay, 3CLpro of GI.1c/RHDV FRG strain. The class given is biochemical. The note with it: 30 min preincubation with 3CLpro, 30 min with substrate, mean ± SEM, at least three experiments, read-out: IC50 GI.Ic/RHDV FRG.
For series [2], the system named is FIP. The arrangement: method as in PMID 27027316, PMID 28901812. The note with it: cited from earlier work.
Series [3] in a line: Cytotoxicity assay (CytoTox 96, lactate dehydrogenase release). The class given is cell-based. The note with it: human, 293T cells, up to 100 μM. Here is the method: To determine the cytotoxicity of the compounds, 70 to 80% confluent 293T cells in a 96-well plate were incubated with serial dilutions of each compound (up to 100 μM) for 5 h. Cell cytotoxicity was determined by a CytoTox 96 nonradioactive assay kit (Promega, Madison, WI) by measuring a cytosolic enzyme lactate dehydrogenase, which is released upon cell lysis, following the manufacturer’s instructions, and the 50% cytotoxic concentration (CC50) value for each compound was calculated using GraphPad Prism software. The nonspecific cytotoxic effects of these compounds were also reported previously ([30], [31], [40], [43], [44]).

The target of series [4] is T1, 3CLpro of GI.3P-GI.2 TX1 (Rabbit hemorrhagic disease virus 2, UniProt A0A7M4BDB7).
T1 sequence (A0A7M4BDB7 1109-1251): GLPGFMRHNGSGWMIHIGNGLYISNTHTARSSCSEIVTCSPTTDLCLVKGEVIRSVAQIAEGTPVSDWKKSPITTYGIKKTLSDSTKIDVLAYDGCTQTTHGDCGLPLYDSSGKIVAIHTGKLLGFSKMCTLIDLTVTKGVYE
Kind of series: cell-based. The arrangement: species or system GI.3P-GI.2 (RHDV2/b).

For series [5], the target named is GI.3P-GI.2 TX1 3CLpro (Rabbit hemorrhagic disease virus 2, UniProt A0A7M4BDB7). The experiment in a line: FRET assay, 3CLpro of GI.3P-GI.2 TX1 strain. The class given is biochemical, GI.3P-GI.2 (RHDV2/b). As to conditions: 30 min preincubation with 3CLpro, 30 min with substrate, mean ± SEM, at least three experiments.
For series [6], the target named is GII.1/EBHSV G104 3CLpro (European brown hare syndrome virus, UniProt Q96725). Kind of series: FRET assay, 3CLpro of GII.1/EBHSV G104 strain. The class given is biochemical.
GII.1/EBHSV G104 3CLpro, sequence (Q96725 1102-1244 limits assumed): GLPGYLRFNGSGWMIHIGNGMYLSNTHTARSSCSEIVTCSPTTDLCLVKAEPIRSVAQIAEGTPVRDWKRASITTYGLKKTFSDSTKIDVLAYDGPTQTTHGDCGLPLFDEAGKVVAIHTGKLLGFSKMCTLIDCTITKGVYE
Series [7] concerns FIPV 3CLpro. The arrangement: method as in PMID 30342822. As to conditions: FRET assay; read-out: IC50 against FIPV 3CLpro; cited from earlier work.
Series [8] has as its system murine norovirus. The arrangement: method as in PMID 25761614. As to conditions: intestinal tracts of mice; cited from earlier work.

The values below come from publication PMC9430360 (Microbiology Spectrum, 2022).

The CC50 is the concentration giving 50% cytotoxicity. Read a low CC50 as greater toxicity to the cells. Broadly, the EC50 is the midpoint of the concentration-response curve.

GI.1c/RHDV FRG 3CLpro, sequence (P27410 1109-1251 limits assumed): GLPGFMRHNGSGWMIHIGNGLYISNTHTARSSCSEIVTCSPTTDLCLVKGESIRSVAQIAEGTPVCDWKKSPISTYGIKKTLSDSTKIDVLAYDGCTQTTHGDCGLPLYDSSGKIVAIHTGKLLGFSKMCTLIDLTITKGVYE

In the case of `CC(C)C[C@H](NC(=O)OCc1ccccc1)C(=O)N[C@H](C[C@@H]1CCNC1=O)C(O)S(=O)(=O)O` (stereo partly shown) [GC376], the IC50 is 1.21 µM in series [1], 1.39 µM in series [5], 1 µM in series [6] and 0.5 µM in series [7]. The “in vivo efficacy in cats with FIP” value in series [2] is “reduced viral replication and improved survival”. Besides, the CC50 at 5 h in series [3] was above 100 µM. In series [4], the EC50 was 5.35 ± 0.14 µM.
As for `O=C[C@@H](C[C@@H]1CCNC1=O)NC(=O)[C@H](CC1CCCCC1)NC(=O)OCc1ccccc1` [GC543], the IC50 in series [1] worked out at 0.09 ± 0.03 µM; in series [5], 0.12 ± 0.07 µM; in series [6], 0.07 ± 0.01 µM. In series [3], the CC50 at 5 h was above 100 µM. In series [4], the concentration for a half-maximal effect (EC50) is 0.55 ± 0.06 µM.
In the case of `O=C[C@@H](C[C@@H]1CCNC1=O)NC(=O)[C@H](CC1CCCCC1)NC(=O)OCc1cccc(Cl)c1` [GC583], the IC50 in series [1] is 0.08 ± 0.02 µM; in series [5], 0.1 ± 0.08 µM; in series [6], 0.05 ± 0.01 µM. Moreover, in series [3], the 50% cytotoxic concentration (CC50) at 5 h is above 100 µM. For the same molecule, the EC50 in series [4] was found to be 0.46 ± 0.05 µM. Also, the “in vivo efficacy, murine norovirus replication” value in series [8] is “significantly decreasing murine norovirus replication in the intestinal tracts of mice without toxicity”.
Regarding `O=C(N[C@@H](CC1CCCCC1)C(=O)N[C@H](C[C@@H]1CCNC1=O)C(=O)C(=O)NC1CC1)OCc1cccc(Cl)c1` [GC591], the IC50 in series [1] is 0.59 ± 0.04 µM; in series [5] it was 0.73 ± 0.27 µM; in series [6], 0.43 ± 0.07 µM. The molecule also yielded a CC50 at 5 h in series [3] above 100 µM. For the same molecule, in series [4], the EC50 was 9.8 ± 1.26 µM.
Taken in the same sequence, the figures for `CC(C)CC(NC(=O)C(Cc1cccc2ccccc12)NC(=O)OCc1ccccc1)C(=O)NC(C=O)CC1CCNC1=O` (stereo not shown) [NPI52] were 0.31 ± 0.02 µM, 0.57 ± 0.36 µM, 0.3 ± 0.09 µM, above 100 µM and 4 ± 0.43 µM.
